Reference: US20230131966A1, “FUNGICIDAL AMIDES” (FMC Corporation, priority 2020, published 2023)

Tests used:
Assay type in all cases: in vivo
[1] = system: Puccinia recondita f. sp. tritici; experiment: Test B: wheat leaf rust control on wheat seedlings; settings: wheat seedlings, 100 = 100% disease control, 0 = no control
[2] = system: Zymoseptoria tritici; experiment: Test C: wheat leaf blotch control on wheat seedlings; settings: wheat seedlings, 100 = 100% disease control, 0 = no control
[3] = system: Phytophthora infestans; experiment: whole plant or invertebrate; settings: tomato seedlings, 100 = 100% disease control, 0 = no control
[4] = system: Erysiphe graminis f. sp. tritici; experiment: Test G: wheat powdery mildew control on wheat seedlings; settings: 100 = 100% disease control, 0 = no control
[5] = system: Plasmopara viticola; experiment: Test D: grape downy mildew control on grape seedlings; settings: 100 = 100% disease control, 0 = no control
[6] = system: Phakopsora pachyrhizi; experiment: Test A: Asian soybean rust control on soybean seedlings; settings: soybean seedlings, 100 = 100% disease control, 0 = no control
[7] = system: Botrytis cinerea; experiment: Test E: tomato Botrytis control on tomato seedlings; settings: 100 = 100% disease control, 0 = no control

SMILES | Test B disease control rating ([1]; 250 ppm) [%] | Test C disease control rating ([2]; 250 ppm) [%] | Test F disease control rating ([3]; 250 ppm) [%] | Test G disease control rating ([4]; 250 ppm) [%] | Test D disease control rating ([5]; 250 ppm) [%] | Test A disease control rating ([6]; 250 ppm) [%] | Test E disease control rating ([7]; 250 ppm) [%] | Test B disease control rating ([1]; 50 ppm) [%] | Test C disease control rating ([2]; 50 ppm) [%] | Test F disease control rating ([3]; 50 ppm) [%] | Test G disease control rating ([4]; 50 ppm) [%] | Test D disease control rating ([5]; 50 ppm) [%] | Test A disease control rating ([6]; 50 ppm) [%] | Test E disease control rating ([7]; 50 ppm) [%]
COc1ccnc(C(=O)NC(C)C(=O)OC(C)c2ccc(F)cc2Oc2ccccc2)c1OC(C)=O (mixture of isomers) [Compound 85] | 79 | 67 | 0 | 0 | 62 | 63 | 0 | – | – | – | – | – | – | –
COc1ccnc(C(=O)NC(C)C(=O)OC(C)c2ccc(-n3ccc(C(F)(F)F)n3)cc2-n2ccc(C(F)(F)F)n2)c1O (mixture of isomers) [Compound 89] | 0 | 0 | 0 | 0 | 16 | 0 | 0 | – | – | – | – | – | – | –
COc1ccnc(C(=O)NC(C)C(=O)OC(C)c2ccc(-n3ccc(C(F)(F)F)n3)cc2-n2ccc(C(F)(F)F)n2)c1OC(C)=O (mixture of isomers) [Compound 90] | 55 | 0 | 0 | 0 | 17 | 0 | 0 | – | – | – | – | – | – | –
COc1cccc(C(=O)NC(C)C(=O)OC(C)C2CCCCC2)c1O (mixture of isomers) [Compound 91] | 0 | 2 | 0 | 0 | 96 | 0 | 0 | – | – | – | – | – | – | –
COc1cccc(C(=O)NC(C)C(=O)OC(C)C2CCCCC2)c1OC(C)=O (mixture of isomers) [Compound 92] | 0 | 0 | 0 | 0 | 60 | 0 | 0 | – | – | – | – | – | – | –
CC(NC(=O)c1cccc(NC=O)c1O)C(=O)OC(C)c1ccc(C2CCCCC2)cc1 (mixture of isomers) [Compound 97] | 92 | 99 | 99 | 0 | 100 | 98 | 0 | – | – | – | – | – | – | –
COc1ccnc(C(=O)NC(C)C(=O)N(C)C(C)c2ccc(C3CCCCC3)cc2)c1O (mixture of isomers) [Compound 98] | 0 | 59 | 0 | 0 | 71 | 89 | 0 | – | – | – | – | – | – | –
COc1ccnc(C(=O)NC(C)C(=O)N(C)C(C)c2ccc(C3CCCCC3)cc2)c1OC(C)=O (mixture of isomers) [Compound 99] | 68 | 88 | 0 | 0 | 39 | 98 | 0 | – | – | – | – | – | – | –
COc1ccnc(C(=O)NC(C)C(=O)OC(C)C2CCCCCC2)c1OC(C)=O (mixture of isomers) [Compound 101] | – | – | – | – | – | – | – | 68 | 66 | 0 | 0 | 86 | 100 | 0
COc1ccnc(C(=O)NC(C)C(=O)OC(C)C2CCCCCC2)c1O (mixture of isomers) [Compound 102] | – | – | – | – | – | – | – | 55 | 0 | 0 | 0 | 72 | 100 | 0
COc1ccnc(C(=O)NC(C)C(=O)OC(C)C2CCC(c3ccccc3)CC2)c1O (mixture of isomers) [Compound 103] | 100 | 99 | 0 | 0 | 74 | 100 | 0 | – | – | – | – | – | – | –
COc1ccnc(C(=O)NC(C)C(=O)OC(C)c2cc3ccccc3o2)c1O (mixture of isomers) [Compound 125] | 90 | 90 | 0 | 0 | 67 | 99 | 0 | – | – | – | – | – | – | –
COc1ccnc(C(=O)NC(C)C(=O)OC(C)C2CCCCC2)c1O (mixture of isomers) [Compound 126] | 0 | 10 | 0 | 0 | 3 | 0 | 0 | – | – | – | – | – | – | –
C=CCOc1c(OC)ccnc1C(=O)NC(C)C(=O)OC(C)c1ccc(C2CCCCC2)cc1 (mixture of isomers) [Compound 153] | 95 | 24 | 26 | 0 | 70 | 100 | 0 | – | – | – | – | – | – | –
COc1ccnc(C(=O)NC(C)C(=O)OC(C)c2ccc(C3CCCCC3)cc2)c1OC(=O)C(C)C (mixture of isomers) [Compound 154] | 98 | 85 | 0 | 0 | 48 | 100 | 0 | – | – | – | – | – | – | –
COc1ccc(COc2c(OC)ccnc2C(=O)NC(C)C(=O)OC(C)c2ccc(C3CCCCC3)cc2)cc1 (mixture of isomers) [Compound 155] | 99 | 98 | 0 | 0 | 5 | 100 | 0 | – | – | – | – | – | – | –
COc1ccnc(C(=O)NC(C)C(=O)OC(C)c2ccc(C3CCCCC3)cc2)c1OS(C)(=O)=O (mixture of isomers) [Compound 156] | 68 | 13 | 17 | 0 | 7 | 89 | 0 | – | – | – | – | – | – | –
COc1ccnc(C(=O)NC(C)C(=O)OC(C)c2cccc(C3CC3)c2)c1OC(C)=O (mixture of isomers) [Compound 157] | 100 | 86 | 0 | 0 | 63 | 100 | 0 | – | – | – | – | – | – | –
COc1ccnc(C(=O)NC(C)C(=O)OC(C)c2cccc(C3CC3)c2)c1O (mixture of isomers) [Compound 158] | 100 | 73 | 0 | 0 | 94 | 100 | 0 | – | – | – | – | – | – | –
COc1ccnc(C(=O)NC(C)C(=O)OC(C#N)c2ccccc2)c1O (mixture of isomers) [Compound 159] | 0 | 0 | 0 | 0 | 11 | 0 | 0 | – | – | – | – | – | – | –
CC(NC(=O)c1cccc(NC=O)c1O)C(=O)OC(C)c1cccc(OC2CCC(C)(C)CC2)c1 (mixture of isomers) [Compound 160] | 92 | 92 | 80 | 0 | 98 | 100 | 0 | – | – | – | – | – | – | –
COc1ccnc(C(=O)NC(C)C(=O)OC(C)C2CCc3ccccc3O2)c1O (mixture of isomers) [Compound 164] | 99 | 99 | 0 | 0 | 0 | 100 | 0 | – | – | – | – | – | – | –
COc1ccnc(C(=O)NC(C)C(=O)OC(C)C2CCC(C)(C)CC2)c1OC(C)=O (mixture of isomers) [Compound 165] | 100 | 97 | 0 | 0 | 10 | 100 | 0 | – | – | – | – | – | – | –
